Three compounds from ChEMBL document CHEMBL5131427, “Targeted Discovery of Amantamide B, an Ion Channel Modulating Nonapeptide from a South China Sea Oscillatoria Cyanobacterium” (J Nat Prod, 2022) can be followed below.

The source made the active and inactive calls. The calls are words filed in the database; no cut-off is given here. Square brackets hold non-standard residues; d marks the D form. Peptide text beside a SMILES is read from it. * marks the point of attachment. dNMeF = CN[C@H](Cc1ccccc1)C(=O)O; NMeL = CN[C@@H](CC(C)C)C(=O)O; dNMeV = CN[C@@H](C(=O)O)C(C)C; Butyryl = CCCC(=O)*

The term IC50 denotes the point on the concentration scale where inhibition reaches its midpoint. A higher IC50 goes with lower potency.

One data set has as its system K562. Put plainly: Cytotoxicity against human K562 cells measured after 72 hrs by MTT assay. Type of data set: functional, cell-based. As to conditions: K562, 72 h.
For data set [1], the system named is Primary neocortical neuron. Put plainly: Suppression of spontaneous calcium oscillation frequency in Swiss-Webster mouse primary neocortical neuron at 10 uM incubated for 45 min by Fluo-4 dye based. Type of data set: functional, cell-based.
The subject of another data set is U-937. Put plainly: Cytotoxicity against human U-937 cells measured after 72 hrs by MTT assay. Type of data set: functional, cell-based. To be noted: U-937, 72 h. A general note: Tetrazolium assays rely on reduction of a dye to a coloured formazan, in cell work by metabolically active cells.
A short description of data set [2]: Cytotoxicity against Swiss-Webster mouse primary neocortical neuron at 10 uM incubated for 45 min by multi minute duration test. The format is toxicity, cell-based. As to conditions: 0.75 h.
For another data set, the system named is CCRF-CEM. Put plainly: Cytotoxicity against human CCRF-CEM cells measured after 72 hrs by MTT assay. Type of data set: functional, cell-based.

In the case of `CCCC(=O)N(C)[C@H](C(=O)N(C)[C@@H](CC(C)C)C(=O)N[C@@H](CC(C)C)C(=O)N1CCC[C@H]1C(=O)N(C)[C@@H](C(=O)N[C@H](C(=O)NCC(=O)N(C)[C@H](Cc1ccccc1)C(=O)N1CCC[C@H]1C(=O)OC)[C@@H](C)CC)C(C)C)C(C)C`, the IC50 in the data set on K562 came out at 21 µM; with U-937, 7.3 µM; in the data set on CCRF-CEM, 5.6 µM. Besides, the outcome in data set [1] was Active. Also, in data set [2], the Activity result is listed as “Non-Toxic”.
Turning to `Nc1cc(F)ccc1NC(=O)c1ccc(CNC(=O)/C=C/c2cccnc2)cc1` [TUCIDINOSTAT], the figures for the IC50 with K562, in the data set with U-937 and in the data set on CCRF-CEM were 8.3 µM, 3.3 µM and 1 µM, respectively.
With `CCCC(=O)N[C@H](C(=O)N(C)[C@@H](CC(C)C)C(=O)N[C@@H](CC(C)C)C(=O)N1CCC[C@H]1C(=O)N(C)[C@@H](C(=O)N[C@H](C(=O)NCC(=O)N(C)[C@H](Cc1ccccc1)C(=O)N1CCC[C@H]1C(=O)OC)[C@@H](C)CC)C(C)C)C(C)C` (Butyryl-V[NMeL]LP[dNMeV]IG[dNMeF]P-OMe), the IC50 with K562 is greater than 25 µM; in the data set on U-937, 6.1 µM; with CCRF-CEM, 8.3 µM. In data set [1], the result was Active. In addition, the Activity entry in data set [2] is on record as “Non-Toxic”.
